Reference: US12116358B2, “Substituted indoles and methods of use thereof” (EPIZYME, INC., priority 2018, dated 2024)
Read-outs that look alike come from different tables or passages of the source.

How the values were obtained:
H3K36me3 in A549 cells = assay: In-Cell Western (ICW) assay of SETD2 inhibitors (A549 assay); format: cell-based, human; conditions: A549 cells, read-out: SETD2 A549
Procedure, shortened: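 H3K36me3 In-Cell Western: cells exposed to compound for 3 days at 4,000 cells/well, 37° C. DRAQ5 (1:1000) marked cell number, with 700/800-channel Licor read-out.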

SETD2(1434-1711) = molecular target: T1, SETD2(1434-1711) (Homo sapiens, UniProt Q9BYW2); assay: SETD2 (1434-1711) assay; format: biochemical; conditions: read-out: SETD2 (1434-1711)
T1 construct: SETD2 (1434-1711) Assay; catalogue N/A
T1 sequence (Q9BYW2 1434-1711): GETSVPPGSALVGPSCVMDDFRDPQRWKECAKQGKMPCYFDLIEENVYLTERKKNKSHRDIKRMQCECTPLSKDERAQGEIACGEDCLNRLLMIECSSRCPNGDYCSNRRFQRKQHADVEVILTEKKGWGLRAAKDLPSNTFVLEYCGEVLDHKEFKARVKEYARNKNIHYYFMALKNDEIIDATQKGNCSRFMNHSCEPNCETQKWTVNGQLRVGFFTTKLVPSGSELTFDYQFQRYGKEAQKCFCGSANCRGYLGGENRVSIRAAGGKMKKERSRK

| IC50 (H3K36me3 in A549 cells; Homo sapiens) | IC50 (SETD2(1434-1711)) | IC50 (H3K36me3 in A549 cells) | Structure (SMILES) |
| --- | --- | --- | --- |
| > 2000 nM | 5300 nM | – | CC(=O)N1CCN([C@H]2C[C@H](NC(=O)c3cc4c(F)ccc(C)c4[nH]3)CN(C)C2)CC1 [compound 1107] |
| > 2000 nM | > 10000 nM | – | CC(=O)N1CCN([C@@H]2C[C@@H](NC(=O)c3cc4c(F)ccc(C)c4[nH]3)CN(C)C2)CC1 [compound 1108] |
| – | > 10000 nM | > 2000 nM | CC(=O)N1CCN(C2CC(NC(=O)c3cc4c(F)ccc(C)c4[nH]3)CN(C)C2)CC1 (stereo not shown) [compound 1109] |
| – | 20 nM | 70 nM | Cc1ccc(F)c2cc(C(=O)NC3CCCC(N4CCN5C(=O)OCC5C4)C3)[nH]c12 (stereo not shown) [compound 1111] |
| 20 nM | 20 nM | – | Cc1ccc(F)c2cc(C(=O)N[C@@H]3CCC[C@H](N4CCN(C(=O)C(C)C)C(C(F)(F)F)C4)C3)[nH]c12 (stereo partly shown) [compound 1112] |
| 10 nM | 10 nM | – | CCC(=O)N1CCN([C@H]2CCC[C@@H](NC(=O)c3cc4c(F)ccc(C)c4[nH]3)C2)CC1C(F)(F)F (stereo partly shown) [compound 1113] |
| 1600 nM | 40 nM | – | CN/C(=N\C#N)N1CCN([C@H]2CCC[C@@H](NC(=O)c3cc4c(F)ccc(C)c4[nH]3)C2)CC1 [compound 1114] |
| 200 nM | 30 nM | – | CN/C(=C\[N+](=O)[O-])N1CCN([C@H]2CCC[C@@H](NC(=O)c3cc4c(F)ccc(C)c4[nH]3)C2)CC1 [compound 1115] |
| 50 nM | 20 nM | – | C/C(=N\C#N)N1CCN([C@H]2CCC[C@@H](NC(=O)c3cc4c(F)ccc(C)c4[nH]3)C2)CC1 [compound 1116] |
| – | 30 nM | 10 nM | Cc1ccc(F)c2cc(C(=O)NC3CCCC(N4CCN(C(=O)CO)C(C(F)(F)F)C4)C3)[nH]c12 (stereo not shown) [compound 1117] |
| – | 5900 nM | > 2000 nM | CCN(C(=O)CO)C1CCN(C2CCCC(NC(=O)c3cc4c(F)ccc(C)c4[nH]3)C2)C1 (stereo not shown) [compound 1120] |
| – | 1900 nM | > 2000 nM | CCN(C1CCN(C2CCCC(NC(=O)c3cc4c(F)ccc(C)c4[nH]3)C2)C1)S(C)(=O)=O (stereo not shown) [compound 1122] |
| – | 500 nM | 1400 nM | CC(=O)N1C(C)CN(C2CCCC(NC(=O)c3cc4c(F)ccc(C)c4[nH]3)C2)CC1C (stereo not shown) [compound 1123] |
| – | 200 nM | 800 nM | CC(=O)N1CCC(C2CCCC(NC(=O)c3cc4c(F)ccc(C)c4[nH]3)C2)CC1 (stereo not shown) [compound 1124] |
| 80 nM | 20 nM | – | Cc1ccc(F)c2cc(C(=O)N[C@@H]3CCC[C@H](N4CCN5C(=O)N(C)C[C@H]5C4)C3)[nH]c12 [compound 1126] |
| 1300 nM | 400 nM | – | Cc1ccc(F)c2cc(C(=O)N[C@@H]3CCC[C@@H](N4CCN5C(=O)N(C)C[C@@H]5C4)C3)[nH]c12 [compound 1127] |
| 1600 nM | 300 nM | – | Cc1ccc(F)c2cc(C(=O)N[C@@H]3CCC[C@@H](N4CCN5C(=O)N(C)C[C@H]5C4)C3)[nH]c12 [compound 1128] |
| – | 10 nM | 100 nM | CCN(C(=O)CO)C1CCN(C2CCCC(NC(=O)c3cc4c(F)ccc(C)c4[nH]3)C2)C1 (stereo not shown) [compound 1129] |
| – | 4000 nM | > 2000 nM | CCN(C(=O)CO)C1CCN(C2CCCC(NC(=O)c3cc4c(F)ccc(C)c4[nH]3)C2)C1 (stereo not shown) [compound 1130] |
| – | 6 nM | 40 nM | CCN(C1CCN(C2CCCC(NC(=O)c3cc4c(F)ccc(C)c4[nH]3)C2)C1)S(C)(=O)=O (stereo not shown) [compound 1131] |
| – | 2300 nM | > 2000 nM | CCN(C1CCN(C2CCCC(NC(=O)c3cc4c(F)ccc(C)c4[nH]3)C2)C1)S(C)(=O)=O (stereo not shown) [compound 1132] |
| – | 1000 nM | > 2000 nM | Cc1ccc(F)c2cc(C(=O)NC3CCCC(N4CCN5C(=O)OCC5C4)C3)[nH]c12 (stereo not shown) [compound 1134] |

| IC50 (H3K36me3 in A549 cells; Homo sapiens) | IC50 (SETD2(1434-1711)) | IC50 (H3K36me3 in A549 cells) | Structure (SMILES) |
| --- | --- | --- | --- |
| – | 20 nM | 70 nM | Cc1ccc(F)c2cc(C(=O)NC3CCCC(N4CCN5C(=O)OCC5C4)C3)[nH]c12 (stereo not shown) [compound 1135] |
| – | 700 nM | > 2000 nM | Cc1ccc(F)c2cc(C(=O)NC3CCCC(N4CCN5C(=O)OCC5C4)C3)[nH]c12 (stereo not shown) [compound 1136] |
| – | 2000 nM | > 2000 nM | CC(=O)N1CCN(C2CCCC(NC(=O)c3cc4c(F)ccc(C)c4[nH]3)C2)C2(CC2)C1 (stereo not shown) [compound 1137] |
| – | 10 nM | 20 nM | Cc1ccc(F)c2cc(C(=O)NC3CCCC(N4CCN5C(=O)COCC5C4)C3)[nH]c12 (stereo not shown) [compound 1138] |
| – | 500 nM | 1700 nM | Cc1ccc(F)c2cc(C(=O)NC3CCCC(N4CCN5C(=O)COCC5C4)C3)[nH]c12 (stereo not shown) [compound 1139] |
| – | 50 nM | 100 nM | Cc1ccc(F)c2cc(C(=O)NC3CCCC(N4CCN5C(=O)COCC5C4)C3)[nH]c12 (stereo not shown) [compound 1140] |
| – | 400 nM | 1300 nM | Cc1ccc(F)c2cc(C(=O)NC3CCCC(N4CCN5C(=O)COCC5C4)C3)[nH]c12 (stereo not shown) [compound 1141] |
| – | 4800 nM | > 2000 nM | Cc1ccc(F)c2cc(C(=O)NC3CCCC(N4CCn5c(nn(C)c5=O)C4)C3)[nH]c12 (stereo not shown) [compound 1142] |
| – | 1900 nM | > 2000 nM | Cc1ccc(F)c2cc(C(=O)N[C@@H]3CCC[C@@H](N4CCn5c(cccc5=O)C4)C3)[nH]c12 [compound 1143] |
| – | 1800 nM | > 2000 nM | Cc1ccc(F)c2cc(C(=O)NC3CCCC(N4CCC(N(C)C(=O)C(C)(C)O)C4)C3)[nH]c12 (stereo not shown) [compound 1145] |
| – | 40 nM | 200 nM | Cc1ccc(F)c2cc(C(=O)NC3CCCC(N4CCC(N(C)C(=O)C(C)(C)O)C4)C3)[nH]c12 (stereo not shown) [compound 1146] |
| – | 1200 nM | > 2000 nM | Cc1ccc(F)c2cc(C(=O)NC3CCCC(N4CCC(N(C)C(=O)C(C)(C)O)C4)C3)[nH]c12 (stereo not shown) [compound 1147] |
| – | 900 nM | > 2000 nM | CC(=NC#N)N1CCN(C2CCCC(NC(=O)c3cc4c(F)ccc(C)c4[nH]3)C2)CC1 (stereo not shown) [compound 1148] |
| – | 4200 nM | > 2000 nM | Cc1ccc(F)c2cc(C(=O)NC3CCCC(N4CCC(N(CCO)S(C)(=O)=O)C4)C3)[nH]c12 (stereo not shown) [compound 1150] |
| – | 5800 nM | > 2000 nM | Cc1ccc(F)c2cc(C(=O)NC3CCCC(N4CCC(N(CCO)S(C)(=O)=O)C4)C3)[nH]c12 (stereo not shown) [compound 1151] |
| – | 1100 nM | > 2000 nM | CNC(=NC#N)N1CCN(C2CCCC(NC(=O)c3cc4c(F)ccc(C)c4[nH]3)C2)CC1 (stereo not shown) [compound 1152] |
| – | 6000 nM | > 25000 nM | Cc1cccc2cc(C(=O)NC(C)c3ccccc3Cl)[nH]c12 (stereo not shown) [compound 1154] |
| – | 2100 nM | 19700 nM | Cc1cccc2cc(C(=O)NC(C)c3ccccc3Cl)[nH]c12 (stereo not shown) [compound 1156] |
| – | 6 nM | 900 nM | Cc1ccc(F)c2cc(C(=O)Nc3cc(Cl)cc(N4CCC(CCCN5CCCC5)CC4)c3)[nH]c12 [compound 1158] |
| – | 4300 nM | > 2000 nM | COCC(=O)N(C)C1CCN(C2CCCC(NC(=O)c3cc4c(F)ccc(C)c4[nH]3)C2)C1 (stereo not shown) [compound 1160] |
| – | 70 nM | 200 nM | CC(=O)N1C(C)CN(C2CCCC(NC(=O)c3cc4c(F)ccc(C)c4[nH]3)C2)CC1C (stereo not shown) [compound 1162] |
| – | 1600 nM | > 2000 nM | CC(=O)N1C(C)CN(C2CCCC(NC(=O)c3cc4c(F)ccc(C)c4[nH]3)C2)CC1C (stereo not shown) [compound 1163] |
